“Also recorded” adds a separate entry of the source. Where no end group is shown, it is not given here.
Tests used:
[1] = test system: gastric organoids; experiment: Inhibition of PEEPA-induced organoid growth by pathway inhibitors; type: cell-based, mouse
Description: For JAK‐Stat, MEK1 and EGFR inhibition, organoid cultures were respectively treated with Ruxotilinib (15 µM, Selleck, #s1039), U0126 (20 µM, Selleck, #s1102) and Afatinib (1 µM, Selleck, #s1011). The inhibitor was prepared following the manufacturer's instruction.

[2] = test system: AG model mice; experiment: AG mouse model (MNNG + ranitidine): histology and histopathology scoring; type: in vivo; conditions: comparison Moludan, Sijunzi decoction, berberine
Description: (§1) For establishment of a mouse model of atrophic gastritis, normal mice had free access to water containing N‐methyl‐N‐nitro‐N‐nitrosoguanidine (MNNG, […]). Moreover, the mice were given 400 µL of ranitidine (8 mg mL^−1) in solution at a dose of 150 mg kg^−1 daily. After 20 weeks, the mice were euthanized and examined.
(§2) Periplaneta americana insects were cultivated in an industrialized facility and the ethanol extract of (PEEPA) was prepared with a standardized method, which was dissolved in the vehicle containing water, 15% glycerol and 0.2% potassium sorbate. PEEPA‐derived peptides (PEEPA‐P5) were dissolved to 500 ng mL^−1 in water for in vitro experiments and to 1 mg mL^−1 for in vivo experiments. Mice were administrated with PEEPA, PEEPA‐P5, or vehicle through oral gavage daily for 2 or 4 weeks.
For murine gastritis samples, histologic scoring was blindly done following standard criteria. In brief, the oxyntic atrophy scoring was determined by the absence of parietal and chief cells in mucosa and the gastritis histology index has three categories, inflammation, epithelial defects, and oxyntic atrophy. A larger score represents a more severe gastritis.

[3] = cited from earlier work
Description: Herein, by analyzing AG model mice and patient samples with genetic tracing, organoid cultures, and RNA‐seq, we uncovered GSC defects as a critical AG pathogenic factor, associated with decreased signaling of EGF, an important GSC niche molecule. […] We wanted to test their therapeutic effect on AG model mice generated with n‐methyl‐n‐nitro‐n‐nitrosoguanidine (MNNG) and ranitidine (Figure 1A).

[4] = test system: EGFR-Stat1 and EGFR-ERK signaling in AG organoids; experiment: Western blot of EGFR signaling in AG patient-derived gastric organoids; type: cell-based, human; conditions: organoids from AG patients
Description: (§3) The gastric antrum of mice was harvested and the middle part was cut open. After cleaning in PBS containing 1% pencillin‐streptomycin (PS) for several times, the food residue and other impurities were completely removed. The gastric gland epithelial layer was separated from the muscle layer with forceps under the stereoscope. The epithelial layer was cut into 2.5 mm long fragments, which were digested in 2.5 mM EDTA/DPBS at 4 °C for 1 h. The gland fragments were filtered through a 70 µm strainer (Thermo Fisher), washed with cold DPBS buffer, and centrifuged at 1000 rpm for 5 min. Afterward, the gland sediments were suspended in growth factor reduced phenol‐free Matrigel (Corning) and seeded into 48‐well plate. […] At different time points (Day 1, 3, 5, and 7), the organoids were observed under inverted microscope, and the organ diameter and bud numbers were measured to determine the levels of cell proliferation. […]
(§4) results were visualized and quantified using the FluoChem M system (ProteinSimple).
(§5) Cell culture and cell viability assay: Human gastric normal epithelial cell line GES-1 was cultured in DMEM medium containing 10% fetal bovine serum and 1% pencillin-streptomycin at 37℃ with 5% CO2. […] After 3 days, substrate tetrazolium salt was added to each sample and incubated at 37℃ for 2 hrs and the absorbance at 450 nm was measured using BioTeck. […]

[5] = no reference given; cited from earlier work
Description: Moreover, PEEPA‐P5 has unique properties compared to EGF. […] Third, PEEPA‐induced ERK and Stat1 activation is much slower.

[6] = test system: EGFR-Stat1 and EGFR-ERK signaling in NAG organoids; experiment: Western blot of EGFR signaling in NAG patient-derived gastric organoids; type: cell-based, human; conditions: organoids from NAG patients
Description: as §3, §4, §5

[7] = test system: EGFR, ERKs, Stat1, Akt1, Stat3 in GES-1 cells; experiment: Western blot of EGFR downstream signaling in GES-1 cells; type: cell-based, human; conditions: EGF 0.4 µM
Description: Western Blot: Tissue proteins were isolated using T-PER Tissue Protein Extraction Reagent (Thermo Fisher, #78510). Proteins of cultured cells were extracted using RIPA lysis buffer supplemented with 1 mM PMSF, […] pepstatin, leupeptin, and aprotonin. Equal amounts of total proteins were subjected to SDS-PAGE and transferred to PVDF membrane (Millipore). The primary antibodies include: p-Stat1 […]
as §4
Cell culture and cell viability assay: Human gastric normal epithelial cell line GES-1 was cultured in DMEM medium containing 10% fetal bovine serum and 1% pencillin- […]
streptomycin at 37℃ with 5% CO2. […]
(§6) TRIzol reagent. cDNA was reverse transcribed from 500 ng RNA by PrimeScript RT […]
(§7) Light Cycler 480. The sequences of primers are as follows: Gastrin-F: 5’- GGACAGGGACCAATGAGG-3’; Gastrin-R: 5’-
(§8) -3’; SST-F: 5’-ACCGGGAAAAGGAACTGG-3’;
(§9) SST-R: 5’-TTGCTGGGTTCGAGTTGGC-3’; Muc5ac-F: 5’-
(§10) AGCCTAGCCACCACCTTAG-3’; TFF1-F: 5’-[…]-3’;
(§11) TFF1-R: 5’-[…]-3’; TFF2-F: 5’- TGCTCTGGTAGAGGGCGAG-3’; TFF2-R: 5’-CGAGCTAGAGTCAAAGAG-3’;
(§12) Spdef-F: 5’-GGAGGAGACTCTTCTGAAG-3’; Spdef-R: 5’-
(§13) -3’. For human genes, hPCNA-F: 5’-
(§14) CAGCGGTAGGTGTCGAAGC-3’; hTFF2-F: 5’-[…]-
(§15) 3’; hTTF2-R: 5’-[…]-3’; hMuc5ac-F: 5’-
(§16) GCGCACAGAGGATGACAGT-3’; hATP4b-F: 5’-[…]-
(§17) 3’; hATP4b-R: 5’-[…]-3’; hGastrin-F: 5’-
GCCCCTGTACCTAAGGGTG-3’; hAxin2-F: 5’- […]

[8] = test system: liver and kidney of AG model mice; experiment: Body weight and liver/kidney histology in AG model mice; type: in vivo, mouse; conditions: PEEPA-P5; H&E, representative of three mice
Description: as §1, §2

[9] = Retention / stability in murine stomach (P5-fluorescein); type: in vivo
[10] = test system: GES-1 cells; experiment: Cell viability assay (CCK-8); type: cell-based, human
Description: Cell culture and cell viability assay: Human gastric normal epithelial cell line GES-1 was cultured in DMEM medium containing 10% fetal bovine serum and 1% pencillin-streptomycin at 37℃ with 5% CO2. For cell viability assay, Cell Counting Kit-8 (CCK-8) was purchased from KeyGEN BioTECH Corp., Ltd. The cells were cultured in 96-wells plate and PEEPA-P5 was added in each well with different concentrations. After 3 days, substrate tetrazolium salt was added to each sample and incubated at 37℃ for 2 hrs and the absorbance at 450 nm was measured using BioTeck. […]
as §6, §7, §8, §9, §10, §11, §12, §13, §14, §15, §16, §17
GCCCCTGTACCTAAGGGTG-3’; hAxin2-F: 5’-
RNA sequencing: The gastric muscle layer was removed under the stereoscope and the […]

N#CC[C@H](C1CCCC1)n1cc(-c2ncnc3[nH]ccc23)cn1 [Ruxo, ruxolitinib]
effect on PEEPA-induced organoid growth and differentiation ([1]; Jak inhibitor Ruxo 15 µM, n=6 (growth), n=3 (qPCR)): impeded PEEPA‐induced organoid growth and differentiation
expression of differentiation markers in gastric organoids ([1]; Ruxo, qPCR, mean ± SD, n=3): suppressed the expression of differentiation markers

N#CC(=C(/N)Sc1ccccc1N)/C(C#N)=C(/N)Sc1ccccc1N [U0126]
effect on PEEPA-induced organoid growth ([1]; ERK inhibitor U0126 20 µM, mean ± SD, n=3): suppressed PEEPA‐induced organoid growth

CN(C)C/C=C/C(=O)Nc1cc2c(Nc3ccc(F)c(Cl)c3)ncnc2cc1O[C@H]1CCOC1 [afatinib]
effect on PEEPA-induced organoid growth ([1]; EGFR inhibitor afatinib 1 µM, mean ± SD, n=3): blocked the pro‐growth effect of PEEPA on gastric organoids

COc1ccc2cc3[n+](cc2c1OC)CCc1cc2c(cc1-3)OCO2 [berberine, reference compound]
restoration of gland structure, gastritis histology index and oxyntic atrophic score (compared with PEEPA) [2]: only PEEPA restored the gastric gland structure
reported therapeutic effects on AG ([3]; ref [16]): therapeutic effects on AG

EGF: GSC niche molecule; EGF protein used as comparison
sensitivity to EGF, AG organoids [4]: organoids from AG patients are insensitive
stability in acidic stomach environment [5]: instability of EGF in acidic stomach environment
sensitivity to EGF, NAG organoids [6]: organoids from NAG patients are highly sensitive to EGF
downstream signaling activated by EGF [7]: activates ERK, Akt1, and Stat1/3 signaling
secretion of defensin 3 ([3]; ref [15]): promotes secretion of defensin 3

PAAEPVPLVKQD [PEEPA-P5]
effect on liver or kidney [8]: little effect on the kidney or liver structure; also recorded: no obvious effect on the liver or kidney
stability in the acidic environment of the stomach ([9]; inferred from retention of P5-fluorescein in mouse stomach): relatively stable in the acidic environment of the stomach
retention time in the stomach ([9]; mouse, oral gavage, measured using P5-fluorescein (PEEPA-P5-FITC), fluorescence at different time points): 3.09 h
IC50 [10]: 284 µM
toxicity towards GES-1 cells ([10]; CCK-8, 3 days): low cell toxicity
